Experimental data reported in US10251394B2, “Molecules having pesticidal utility, and intermediates, compositions, and processes, related thereto” (Dow AgroSciences LLC, priority 2016, dated 2019).

What was measured:
Type in all cases: in vivo
[1] = system: Beet Armyworm (Spodoptera exigua); experiment: Bioassay on Beet Armyworm (BAW), 128-well diet tray assay; conditions: Beet Armyworm, Table ABC, read-out: BAW rating
How it was run: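 Percent mortality, averaged over eight wells, was scored after five to seven days at 25° C under 14:10 light-dark. Each well's diet carried 50 μg/cm^2 of test molecule applied in acetone-water (90:10) and dried before one to five second-instar larvae were added.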

[2] = system: Cabbage Looper (Trichoplusia ni); experiment: Bioassay on Cabbage Looper (CL), 128-well diet tray assay; conditions: Cabbage Looper, Table ABC, read-out: CL rating
How it was run: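 Mortality after five to seven days at 25° C (14:10 photoperiod), averaged over eight wells per compound. Diet in each well carried 50 μg/cm^2 of dried test molecule and received one to five second-instar larvae.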

[3] = system: Yellow Fever Mosquito (Aedes aegypti); experiment: Bioassay on Yellow Fever Mosquito (YFM) larvae, 96-well plate; conditions: Table ABC
Procedure: Example C: Bioassays on Yellow Fever Mosquito (Aedes Aegypti, AEDSAE) (“YFM”)
Certain molecules disclosed in this document were tested against YFM using procedures described in the following paragraph. In the reporting of the results, the “GPA & YFM Rating Table” was used (See Table Section).
Master plates containing 400 μg of a molecule dissolved in 100 μL of dimethyl sulfoxide (DMSO) (equivalent to a 4000 ppm solution) are used. A master plate of assembled molecules contains 15 μL per well. To this plate, 135 μL of a 90:10 water:acetone mixture is added to each well. A robot (Biomek® NXP Laboratory Automation Workstation) is programmed to dispense 15 μL aspirations from the master plate into an empty 96-well shallow plate (“daughter” plate). There are 6 reps (“daughter” plates) created per master. The created daughter plates are then immediately infested with YFM larvae.
The day before plates are to be treated, mosquito eggs are placed in Millipore water containing liver powder to begin hatching (4 g. into 400 mL). After the daughter plates are created using the robot, they are infested with 220 μL of the liver powder/larval mosquito mixture (about 1 day-old larvae). After plates are infested with mosquito larvae, a non-evaporative lid is used to cover the plate to reduce drying. Plates are held at room temperature for 3 days prior to grading. After 3 days, each well is observed and scored based on mortality. The results are indicated in the table entitled “Table ABC: Biological Results” (See Table Section).

SMILES: O=C(NC1(C(=O)NCC(F)(F)F)CC1)c1ccc(/C(F)=C/C(c2cc(Cl)cc(Cl)c2)C(F)(F)F)cc1C(F)(F)F (stereo not drawn) [F39, (Z)-4-(3-(3,5-Dichlorophenyl)-1,4,4,4-tetrafluorobut-1-en-1-yl)-N-(1-((2,2,2-trifluoroethyl)carbamoyl)cyclopropyl)-2-(trifluoromethyl)benzamide]
- pest or weed control at 50 µg/cm2 [1]: 50 to 100%
- pest or weed control at 50 µg/cm2 [2]: 50 to 100%
- YFM rating [3]: A (80-100)

SMILES: O=C(CNC(=O)c1ccc(/C(F)=C/C(c2cc(Cl)cc(Cl)c2)C(F)(F)F)cc1C(F)(F)F)NCC(F)(F)F (stereo not drawn) [F40, (Z)-4-(3-(3,5-Dichlorophenyl)-1,4,4,4-tetrafluorobut-1-en-1-yl)-N-(2-oxo-2-((2,2,2-trifluoroethyl)amino)ethyl)-2-(trifluoromethyl)benzamide]
- pest or weed control at 50 µg/cm2 [1]: 50 to 100%
- pest or weed control at 50 µg/cm2 [2]: 50 to 100%
- YFM rating [3]: A (80-100)

SMILES: O=C(NC1(C(=O)NCC(F)(F)F)CC1)c1ccc(/C(F)=C/C(c2ccc(Cl)c(Cl)c2)C(F)(F)F)cc1C(F)(F)F (stereo not drawn) [F41, (Z)-4-(3-(3,4-Dichlorophenyl)-1,4,4,4-tetrafluorobut-1-en-1-yl)-N-(1-((2,2,2-trifluoroethyl)carbamoyl)cyclopropyl)-2-(trifluoromethyl)benzamide]
- pest or weed control at 50 µg/cm2 [1]: 50 to 100%
- pest or weed control at 50 µg/cm2 [2]: 50 to 100%
- YFM rating [3]: A (80-100)

SMILES: C[C@@H](NC(=O)c1ccc(/C(F)=C/C(c2ccc(Cl)c(Cl)c2)C(F)(F)F)cc1C(F)(F)F)C(=O)NCC(F)(F)F (stereo partly drawn) [F42, 4-((Z)-3-(3,4-Dichlorophenyl)-1,4,4,4-tetrafluorobut-1-en-1-yl)-N—((R)-1-oxo-1-((2,2,2-trifluoroethyl)amino)propan-2-yl)-2-(trifluoromethyl)benzamide]
- pest or weed control at 50 µg/cm2 [1]: 50 to 100%
- pest or weed control at 50 µg/cm2 [2]: 50 to 100%
- YFM rating [3]: A (80-100)

SMILES: O=C(CNC(=O)c1ccc(/C(F)=C/C(c2ccc(Cl)c(Cl)c2)C(F)(F)F)cc1C(F)(F)F)NCC(F)(F)F (stereo not drawn) [F43, (Z)-4-(3-(3,4-Dichlorophenyl)-1,4,4,4-tetrafluorobut-1-en-1-yl)-N-(2-oxo-2-((2,2,2-trifluoroethyl)amino)ethyl)-2-(trifluoromethyl)benzamide]
- pest or weed control at 50 µg/cm2 [1]: 50 to 100%
- pest or weed control at 50 µg/cm2 [2]: 50 to 100%
- YFM rating [3]: A (80-100)

SMILES: C[C@@H](NC(=O)c1ccc(/C(F)=C/C(c2cc(Br)c(Cl)c(Br)c2)C(F)(F)F)cc1C(F)(F)F)C(=O)NCC(F)(F)F (stereo partly drawn) [F44, 4-((Z)-3-(3,5-Dibromo-4-chlorophenyl)-1,4,4,4-tetrafluorobut-1-en-1-yl)-N—((R)-1-oxo-1-((2,2,2-trifluoroethyl)amino)propan-2-yl)-2-(trifluoromethyl)benzamide]
- pest or weed control at 50 µg/cm2 [1]: 50 to 100%
- pest or weed control at 50 µg/cm2 [2]: 50 to 100%
- YFM rating [3]: A (80-100)

SMILES: O=C(NC1(C(=O)NCC(F)(F)F)CC1)c1ccc(/C(F)=C/C(c2cc(Br)c(Cl)c(Br)c2)C(F)(F)F)cc1C(F)(F)F (stereo not drawn) [F45, (Z)-4-(3-(3,5-Dibromo-4-chlorophenyl)-1,4,4,4-tetrafluorobut-1-en-1-yl)-N-(1-((2,2,2-trifluoroethyl)carbamoyl)cyclopropyl)-2-(trifluoromethyl)benzamide]
- pest or weed control at 50 µg/cm2 [1]: 50 to 100%
- pest or weed control at 50 µg/cm2 [2]: 50 to 100%
- YFM rating [3]: A (80-100)

SMILES: O=C(CNC(=O)c1ccc(/C(F)=C/C(c2cc(Br)c(Cl)c(Br)c2)C(F)(F)F)cc1C(F)(F)F)NCC(F)(F)F (stereo not drawn) [F46, (Z)-4-(3-(3,5-Dibromo-4-chlorophenyl)-1,4,4,4-tetrafluorobut-1-en-1-yl)-N-(2-oxo-2-((2,2,2-trifluoroethyl)amino)ethyl)-2-(trifluoromethyl)benzamide]
- pest or weed control at 50 µg/cm2 [1]: 50 to 100%
- pest or weed control at 50 µg/cm2 [2]: 50 to 100%
- YFM rating [3]: A (80-100)

SMILES: C=Cc1c(Cl)cc(C(/C=C(\F)c2ccc(C(=O)N[C@H](C)C(=O)NCC(F)(F)F)c(C(F)(F)F)c2)C(F)(F)F)cc1Cl (stereo partly drawn) [F52, 4-((Z)-3-(3,5-Dichloro-4-vinylphenyl)-1,4,4,4-tetrafluorobut-1-en-1-yl)-N—((R)-1-oxo-1-((2,2,2-trifluoroethyl)amino)propan-2-yl)-2-(trifluoromethyl)benzamide]
- pest or weed control at 50 µg/cm2 [1]: 50 to 100%
- pest or weed control at 50 µg/cm2 [2]: 50 to 100%
- YFM rating [3]: A (80-100)

SMILES: CCN1OC[C@@H](NC(=O)c2ccc(/C(F)=C/C(c3cc(Cl)c(Cl)c(Cl)c3)C(F)(F)F)cc2C(F)(F)F)C1=O (stereo partly drawn) [F53, N—((R)-2-Ethyl-3-oxoisoxazolidin-4-yl)-4-((Z)-1,4,4,4-tetrafluoro-3-(3,4,5-trichlorophenyl)but-1-en-1-yl)-2-(trifluoromethyl)benzamide]
- pest or weed control at 50 µg/cm2 [1]: 50 to 100%
- pest or weed control at 50 µg/cm2 [2]: 50 to 100%
- YFM rating [3]: A (80-100)

SMILES: C[C@@H](NC(=O)c1ccc(/C(F)=C/C(c2cc(Cl)c(Br)c(Cl)c2)C(F)(F)F)cc1C(F)(F)F)C(=O)NCC(F)(F)F (stereo partly drawn) [F59, 4-((Z)-3-(4-Bromo-3,5-dichlorophenyl)-1,4,4,4-tetrafluorobut-1-en-1-yl)-N—((R)-1-oxo-1-((2,2,2-trifluoroethyl)amino)propan-2-yl)-2-(trifluoromethyl)benzamide]
- pest or weed control at 50 µg/cm2 [1]: 50 to 100%
- pest or weed control at 50 µg/cm2 [2]: 50 to 100%
- YFM rating [3]: A (80-100)

SMILES: O=C(NC1(C(=O)NCC(F)(F)F)CC1)c1ccc(/C(F)=C/C(c2cc(Cl)c(Br)c(Cl)c2)C(F)(F)F)cc1C(F)(F)F (stereo not drawn) [F60, (Z)-4-(3-(4-Bromo-3,5-dichlorophenyl)-1,4,4,4-tetrafluorobut-1-en-1-yl)-N-(1-((2,2,2-trifluoroethyl)carbamoyl)cyclopropyl)-2-(trifluoromethyl)benzamide]
- pest or weed control at 50 µg/cm2 [1]: 50 to 100%
- pest or weed control at 50 µg/cm2 [2]: 50 to 100%
- YFM rating [3]: A (80-100)

SMILES: C=Cc1c(Cl)cc(C(/C=C(\F)c2ccc(C(=O)NCC(=O)NCC(F)(F)F)c(C(F)(F)F)c2)C(F)(F)F)cc1Cl (stereo not drawn) [F61, (Z)-4-(3-(3,5-Dichloro-4-vinylphenyl)-1,4,4,4-tetrafluorobut-1-en-1-yl)-N-(2-oxo-2-((2,2,2-trifluoroethyl)amino)ethyl)-2-(trifluoromethyl)benzamide]
- pest or weed control at 50 µg/cm2 [1]: 50 to 100%
- pest or weed control at 50 µg/cm2 [2]: 50 to 100%
- YFM rating [3]: A (80-100)

SMILES: CN(CC(=O)NCC(F)(F)F)C(=O)c1ccc(/C(F)=C/C(c2cc(Cl)c(Cl)c(Cl)c2)C(F)(F)F)cc1C(F)(F)F (stereo not drawn) [F68, (Z)—N-Methyl-N-(2-oxo-2-((2,2,2-trifluoroethyl)amino)ethyl)-4-(1,4,4,4-tetrafluoro-3-(3,4,5-trichlorophenyl)but-1-en-1-yl)-2-(trifluoromethyl)benzamide]
- pest or weed control at 50 µg/cm2 [1]: 50 to 100%
- pest or weed control at 50 µg/cm2 [2]: 50 to 100%
- YFM rating [3]: A (80-100)

SMILES: Cc1cc(C(/C=C(\F)c2ccc(C(=O)N[C@H](C)C(=O)NCC(F)(F)F)c(C(F)(F)F)c2)C(F)(F)F)cc(C)c1Cl (stereo partly drawn) [F69, 4-((Z)-3-(4-Chloro-3,5-dimethylphenyl)-1,4,4,4-tetrafluorobut-1-en-1-yl)-N—((R)-1-oxo-1-((2,2,2-trifluoroethyl)amino)propan-2-yl)-2-(trifluoromethyl)benzamide]
- pest or weed control at 50 µg/cm2 [1]: 50 to 100%
- pest or weed control at 50 µg/cm2 [2]: 50 to 100%
- YFM rating [3]: A (80-100)

SMILES: Cc1cc(C(/C=C(\F)c2ccc(C(=O)NC3(C(=O)NCC(F)(F)F)CC3)c(C(F)(F)F)c2)C(F)(F)F)cc(C)c1Cl (stereo not drawn) [F70, (Z)-4-(3-(4-Chloro-3,5-dimethylphenyl)-1,4,4,4-tetrafluorobut-1-en-1-yl)-N-(1-((2,2,2-trifluoroethyl)carbamoyl)cyclopropyl)-2-(trifluoromethyl)benzamide]
- pest or weed control at 50 µg/cm2 [1]: 50 to 100%
- pest or weed control at 50 µg/cm2 [2]: 50 to 100%
- YFM rating [3]: A (80-100)

SMILES: Cc1cc(C(/C=C(\F)c2ccc(C(=O)NCC(=O)NCC(F)(F)F)c(C(F)(F)F)c2)C(F)(F)F)cc(C)c1Cl (stereo not drawn) [F71, (Z)-4-(3-(4-Chloro-3,5-dimethylphenyl)-1,4,4,4-tetrafluorobut-1-en-1-yl)-N-(2-oxo-2-((2,2,2-trifluoroethyl)amino)ethyl)-2-(trifluoromethyl)benzamide]
- pest or weed control at 50 µg/cm2 [1]: 50 to 100%
- pest or weed control at 50 µg/cm2 [2]: 50 to 100%
- YFM rating [3]: B (More than 0-Less than 80)

SMILES: C[C@@H](NC(=O)c1ccc(/C(F)=C/C(c2cc(Cl)cc(Cl)c2)C(F)(F)F)cc1C(F)(F)F)C(=O)N(C)CC(F)(F)F (stereo partly drawn) [F72, 4-((Z)-3-(3,5-Dichlorophenyl)-1,4,4,4-tetrafluorobut-1-en-1-yl)-N—((R)-1-(methyl(2,2,2-trifluoroethyl)amino)-1-oxopropan-2-yl)-2-(trifluoromethyl)benzamide]
- pest or weed control at 50 µg/cm2 [1]: 50 to 100%
- pest or weed control at 50 µg/cm2 [2]: 50 to 100%
- YFM rating [3]: A (80-100)
